Source: patent US8648118B2, “Bicyclic ring system substituted amide functionalised phenols as medicaments” (Boehringer Ingelheim International GmbH, priority 2010, dated 2014)

molecular target: T1, BAF/3 cells expressing human CXCR2 (Homo sapiens, UniProt P25025); experiment: Chemotaxis assay 1, transfected cell line: inhibition of CXCL1 induced chemotaxis; format: cell-based; details: inhibition of CXCL1 (3 nM) induced chemotaxis of BAF/3 cells expressing human CXCR2; 4 hours incubation
T1 construct: expressed in transfected cells; host or cells: BAF/3 cells
T1 sequence (P25025 1-360): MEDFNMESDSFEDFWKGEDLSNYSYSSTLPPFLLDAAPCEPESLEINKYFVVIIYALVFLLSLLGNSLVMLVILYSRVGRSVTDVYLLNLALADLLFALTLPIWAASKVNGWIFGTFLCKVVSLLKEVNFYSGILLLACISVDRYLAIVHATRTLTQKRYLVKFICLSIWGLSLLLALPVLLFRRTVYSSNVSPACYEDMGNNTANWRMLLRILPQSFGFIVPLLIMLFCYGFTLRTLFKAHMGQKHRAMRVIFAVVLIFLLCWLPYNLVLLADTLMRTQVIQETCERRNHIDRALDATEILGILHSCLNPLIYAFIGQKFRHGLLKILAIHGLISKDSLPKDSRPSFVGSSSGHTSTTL
Protocol: Chemotaxis assay 1, transfected cell line: This assay measures the inhibition of CXCL1 induced chemotaxis of BAF/3 cells expressing human CXCR2. For each assay point, 100 μL of a 3×10^6/mL cell suspension are incubated with 1 μL of test compound diluted in DMSO. The bottom wells of a chemotaxis plate (5 μm pore size, Neuroprobe) is filled with 305 μL of chemotaxis buffer (RPMI 1640 medium (phenol red free), containing 2% fetal calf serum) and 3 nM CXCL1. The 5 μm pore membrane is applied onto the chemotaxis plate and 80 μL of the cell suspension is cautiously pipetted onto the membrane. The lid is put on the chemotaxis plate and the plate is incubated for 4 hours in an incubator (37° C., 5% CO2). For quantification of migrated cells, the cell suspension and the lid are removed and 100 μL from the bottom chamber are transferred to an Opti plate 96 (Perkin Elmer). 100 μL of substrate solution (provided by Cell Titer Glo kit, Promega) are added. This method uses the measurement of ATP present in metabolically active cells. After 10 min incubation at room temperature the plate is measured at Luminoscan for quantification of ATP-dependent generation of oxyluciferin. IC50s of the tested compound are calculated by non-linear regression and using a sigmoidal dose-response curve as fitting algorithm (provided by GraphPadPrism). Determination of a bottom value is performed by quantification of migration of buffer treated cells, migrating towards buffer only. Determination of a top value is performed by quantification of migration of buffer treated cells, migrating towards CXCL1.

| SMILES | IC50 [nM] |
| --- | --- |
| O=C1NCCC2C1CCN2C(=O)c1cccc(Nc2c(Nc3cccc(F)c3Cl)c(=O)c2=O)c1O (centres unmarked) [Example 55] | 617 |
| O=C(c1cccc(Nc2c(Nc3cccc(F)c3Cl)c(=O)c2=O)c1O)N1CCN2CCCCC2C1 (centres unmarked) [Example 51] | 247 |
| O=C(Nc1ccccc1Br)Nc1cccc(C(=O)N2CCN3CCC[C@H]3C2)c1O [Example 10] | 260 |
| O=C(c1cccc(Nc2c(Nc3cccc(F)c3Cl)c(=O)c2=O)c1O)N1CC(=O)N2CCCC2C1 (centres unmarked) [Example 56] | 865 |
| O=C(Nc1cccc(C(=O)N2CC(=O)N3CCCC3C2)c1O)Nc1cccc(F)c1Cl (centres unmarked) [Example 15] | 86 |
| CC[C@@H](Nc1c(Nc2cccc(C(=O)N3CCC4(CCNC4=O)CC3)c2O)c(=O)c1=O)c1ccccc1 [Example 34] | 126 |
| CC[C@@H](Nc1c(Nc2cccc(C(=O)N3CCN4C(=O)CCC4C3)c2O)c(=O)c1=O)c1ccc(C(F)(F)F)o1 (some centres unmarked) [Example 48] | 859 |
| O=C(Nc1cccc(C(=O)N2CCC3(CCNC3=O)CC2)c1O)Nc1cccc(Cl)c1Cl [Example 3] | 634 |
| O=C(c1cccc(Nc2c(Nc3cccc(F)c3Cl)c(=O)c2=O)c1O)N1CC2(COC2)C1 [Example 53] | 360 |
| CC[C@@H](Nc1c(Nc2cccc(C(=O)N3CCC4(CC3)COCC(=O)N4)c2O)c(=O)c1=O)c1ccccc1 [Example 44] | 2130 |
| O=C(Nc1ccccc1Br)Nc1cccc(C(=O)N2CC(=O)N3CCCC3C2)c1O (centres unmarked) [Example 16] | 85 |
| CC[C@H](Nc1c(Nc2cccc(C(=O)N3CCN4CCC[C@@H]4C3)c2O)c(=O)c1=O)c1ccccc1 [Example 23] | 2740 |
| CC[C@H](Nc1c(Nc2cccc(C(=O)N3CCN4CCC[C@H]4C3)c2O)c(=O)c1=O)c1ccccc1 [Example 25] | 1350 |
| O=C(Nc1ccccc1Br)Nc1cccc(C(=O)N2CCN3CCCC3C2)c1O (centres unmarked) [Example 5] | 377 |
| O=C(Nc1ccccc1Br)Nc1cccc(C(=O)N2CCC3(CCNC3=O)CC2)c1O [Example 1] | 597 |
| CC[C@@H](Nc1c(Nc2cccc(C(=O)N3CC(=O)N4CCCC4C3)c2O)c(=O)c1=O)c1ccccc1 (some centres unmarked) [Example 31] | 662 |
| CC[C@@H](Nc1c(Nc2cccc(C(=O)N3CCC4(CCNC4=O)CC3)c2O)c(=O)c1=O)c1ccc(C)o1 [Example 50] | 1850 |
| CC[C@@H](Nc1c(Nc2cccc(C(=O)N3CCN4CCNC(=O)C4C3)c2O)c(=O)c1=O)c1ccccc1 (some centres unmarked) [Example 49] | 926 |
| O=C(Nc1ccccc1Br)Nc1cccc(C(=O)N2CCN3CCC[C@@H]3C2)c1O [Example 8] | 651 |
| O=C(Nc1ccccc1Br)Nc1cccc(C(=O)N2CCN3C(=O)CCC3C2)c1O (centres unmarked) [Example 12] | 119 |
| CC[C@@H](Nc1c(Nc2cccc(C(=O)N3CCS(=O)(=O)C4(CCNC4=O)C3)c2O)c(=O)c1=O)c1ccccc1 (some centres unmarked) [Example 32] | 401 |
| CC[C@@H](Nc1c(Nc2cccc(C(=O)N3CCN4C(=O)CCC4C3)c2O)c(=O)c1=O)c1ccccc1 (some centres unmarked) [Example 30] | 267 |
| CC[C@@H](Nc1c(Nc2cccc(C(=O)N3CCN4C(CCS4(=O)=O)C3)c2O)c(=O)c1=O)c1ccccc1 (some centres unmarked) [Example 47] | 818 |
| O=C(Nc1cccc(C(=O)N2CCN3CCCC3C2)c1O)Nc1cccc(Cl)c1Cl (centres unmarked) [Example 7] | 2570 |

Now those with a lower IC50, led by results:

| IC50 [nM] | SMILES |
| --- | --- |
| 67 | O=C(c1cccc(Nc2c(Nc3cccc(F)c3Cl)c(=O)c2=O)c1O)N1CCN2CCOCC2C1 (centres unmarked) [Example 54] |
| 3.4 | CC[C@@H](Nc1c(Nc2cccc(C(=O)N3CCN4C(=O)COC[C@@H]4C3)c2O)c(=O)c1=O)c1ccccc1 [Example 38] |
| 66 | CC[C@@H](Nc1c(Nc2cccc(C(=O)N3CCC4C(=O)NCCC43)c2O)c(=O)c1=O)c1ccccc1 (some centres unmarked) [Example 41] |
| 11 | CC[C@@H](Nc1c(Nc2cccc(C(=O)N3CCO[C@@H]4CN(C)C[C@H]43)c2O)c(=O)c1=O)c1ccccc1 [Example 43] |
| 1.2 | O=C(Nc1cccc(C(=O)N2CCN3CCOCC3C2)c1O)Nc1cccc(F)c1Cl (centres unmarked) [Example 17] |
| 6.2 | O=C(c1cccc(Nc2c(Nc3cccc(F)c3Cl)c(=O)c2=O)c1O)N1CCC2(CCNC2=O)CC1 [Example 52] |
| 4.1 | CCC(Nc1c(Nc2cccc(C(=O)N3CCC4(CCNC4=O)CC3)c2O)c(=O)c1=O)c1ccccc1 (centres unmarked) [Example 29] |
| 11 | O=C(Nc1cccc(C(=O)N2CCN3C(=O)CCC3C2)c1O)Nc1cccc(F)c1Cl (centres unmarked) [Example 14] |
| 22 | O=C(Nc1cccc(C(=O)N2CCN3CCC[C@@H]3C2)c1O)Nc1cccc(F)c1Cl [Example 9] |
| 40 | CC[C@@H](Nc1c(Nc2cccc(C(=O)N3CCN4CCC[C@H]4C3)c2O)c(=O)c1=O)c1ccc(C(F)(F)F)o1 [Example 28] |
| 50 | O=C(Nc1cccc(C(=O)N2CCN3C(=O)COC[C@@H]3C2)c1O)Nc1cccc(F)c1Cl [Example 19] |
| 26 | CC[C@@H](Nc1c(Nc2cccc(C(=O)N3CCC4(CCCC4)CC3)c2O)c(=O)c1=O)c1ccccc1 [Example 37] |
| 34 | O=C(Nc1cccc(C(=O)N2CCC3(CCNC3=O)CC2)c1O)Nc1cccc(F)c1Cl [Example 4] |
| 47 | O=C(Nc1cccc(C(=O)N2CCN3C(=O)CCC3C2)c1O)Nc1cccc(Cl)c1Cl (centres unmarked) [Example 13] |
| 23 | CC[C@@H](Nc1c(Nc2cccc(C(=O)N3CC4OC(C)(C)C[C@@H]4[C@H]3C(=O)OC)c2O)c(=O)c1=O)c1ccccc1 (some centres unmarked) [Example 39] |
| 34 | CC[C@@H](Nc1c(Nc2cccc(C(=O)N3CC4OC(C)(C)C[C@@H]4[C@H]3CO)c2O)c(=O)c1=O)c1ccccc1 (some centres unmarked) [Example 40] |
| 11 | O=C(Nc1cccc(C(=O)N2CCN3C(=O)COC[C@H]3C2)c1O)Nc1cccc(F)c1Cl [Example 18] |
| 45 | CC[C@@H](Nc1c(Nc2cccc(C(=O)N3CCO[C@@H]4CNC[C@H]43)c2O)c(=O)c1=O)c1ccccc1 [Example 42] |
| 51 | CC[C@@H](Nc1c(Nc2cccc(C(=O)N3CCN4CCOC[C@H]4C3)c2O)c(=O)c1=O)c1ccccc1 [Example 46] |
| 1.5 | O=C(c1cccc(Nc2c(Nc3ccccc3Br)c(=O)c2=O)c1O)N1CCN2CCCC2C1 (centres unmarked) [Example 22] |
| 3.9 | CC[C@@H](Nc1c(Nc2cccc(C(=O)N3CCN4CCC[C@H]4C3)c2O)c(=O)c1=O)c1ccccc1 [Example 26] |
| 41 | O=C(Nc1cccc(C(=O)N2CCN3CCC[C@H]3C2)c1O)Nc1cccc(F)c1Cl [Example 11] |
| 3.3 | CC[C@@H](Nc1c(Nc2cccc(C(=O)N3CC4OCCN(C)C4C3)c2O)c(=O)c1=O)c1ccccc1 (some centres unmarked) [Example 45] |
| 3.2 | CC[C@@H](Nc1c(Nc2cccc(C(=O)N3CCN4CCC[C@@H]4C3)c2O)c(=O)c1=O)c1ccccc1 [Example 24] |
| 16 | CCC(Nc1c(Nc2cccc(C(=O)N3CCN4CCCC4C3)c2O)c(=O)c1=O)c1ccccc1 (centres unmarked) [Example 20] |
| 8 | O=C(c1cccc(Nc2c(Nc3cccc(F)c3Cl)c(=O)c2=O)c1O)N1CCN2CCCC2C1 (centres unmarked) [Example 21] |
| 25 | CC[C@@H](Nc1c(Nc2cccc(C(=O)N3CC4(COC4)C3)c2O)c(=O)c1=O)c1ccccc1 [Example 36] |
| 16 | CC[C@@H](Nc1c(Nc2cccc(C(=O)N3CCN4CCOCC4C3)c2O)c(=O)c1=O)c1ccccc1 (some centres unmarked) [Example 35] |
| 0.1 | CC[C@@H](Nc1c(Nc2cccc(C(=O)N3CCN4CCC[C@H]4C3)c2O)c(=O)c1=O)c1ccc(C)o1 [Example 27] |
